From patent US20250042887A1, “GLYCOGEN SYNTHASE KINASE-3 (GSK3) INHIBITOR COMPOUNDS FOR USE AS ANTIVIRAL AGENTS” (priority 2021, published 2025)
“Also recorded” adds a separate entry of the source.

Test system: SARS-CoV-2 B.1.617.2 and BA.1 variants
Type: cell-based
Details: B.1.617.2 (Delta) and BA.1 (Omicron)

Compound: CSc1ccc(-n2cnc3ccc(-c4nnc(CCc5cccc(C#N)c5)o4)cc32)cc1 [Compound P-0717632]
- effect on SARS-CoV-2 variants: reduced intracellular viral titres; also recorded: inhibited
